Values of other authors as cited in US8349353B2, “Controlled release cytotoxic agent compositions and methods for the treatment of otic disorders” (Otonomy, Inc., priority 2008, dated 2013).

Tested on: V2-R
Settings: infusion into the scala tympani

Cc1ccccc1C(=O)Nc1ccc(C(=O)N2CCCC(N(C)C)c3ccccc32)cc1 (stereo not shown) [OPC-31260]
Meniere's disease symptoms: marked reduction of Meniere's disease symptoms
